Molecules are shown by their SMILES.

The EC50 is the concentration giving half of the maximal effect.

Experiment [1] has as its target T1, uniporter with MICU1-MICU1 homodimer (MICU2-KO HEK cells) (Homo sapiens, UniProt Q8NE86+Q9BPX6).
T1 sequence (Q8NE86 51-351): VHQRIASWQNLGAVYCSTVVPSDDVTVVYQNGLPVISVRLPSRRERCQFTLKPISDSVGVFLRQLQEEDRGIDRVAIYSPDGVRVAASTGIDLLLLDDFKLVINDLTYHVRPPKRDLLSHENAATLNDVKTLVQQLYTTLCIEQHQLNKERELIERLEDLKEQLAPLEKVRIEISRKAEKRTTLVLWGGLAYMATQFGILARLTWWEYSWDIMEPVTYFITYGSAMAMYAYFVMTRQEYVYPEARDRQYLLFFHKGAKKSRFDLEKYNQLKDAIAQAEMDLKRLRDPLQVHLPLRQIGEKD
T1 sequence (Q9BPX6 34-476): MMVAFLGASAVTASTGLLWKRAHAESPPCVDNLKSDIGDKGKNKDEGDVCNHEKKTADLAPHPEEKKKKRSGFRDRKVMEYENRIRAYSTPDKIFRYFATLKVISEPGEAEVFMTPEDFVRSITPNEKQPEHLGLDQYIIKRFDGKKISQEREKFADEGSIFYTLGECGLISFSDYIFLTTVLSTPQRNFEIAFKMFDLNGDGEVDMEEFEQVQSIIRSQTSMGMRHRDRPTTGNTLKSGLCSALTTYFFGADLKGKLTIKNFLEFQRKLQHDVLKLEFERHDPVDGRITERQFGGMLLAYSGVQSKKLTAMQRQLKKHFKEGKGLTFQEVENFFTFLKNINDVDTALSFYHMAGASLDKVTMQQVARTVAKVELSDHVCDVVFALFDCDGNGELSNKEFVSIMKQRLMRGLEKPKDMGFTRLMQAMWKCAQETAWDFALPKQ
T1 sequence (Q9H4I9 53-107 partner): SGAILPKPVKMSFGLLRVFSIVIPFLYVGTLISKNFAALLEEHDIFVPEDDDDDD
In words: Fluo-4 extramitochondrial Ca2+ in digitonin-permeabilized MICU2-KO HEK cells. The experiment is classed as biochemical.

Experiment [2] has as its target T2, MCU-MICU1 complex (MICU1-1 dimer) (Homo sapiens, UniProt Q8NE86+Q9BPX6).
T2 sequence (Q8NE86 51-351): T1 sequence (Q8NE86 51-351)
T2 sequence (Q9BPX6 34-476): T1 sequence (Q9BPX6 34-476)
Put plainly: co-immunoprecipitation from HEK lysate, western blot. It counts as biochemical. To be noted: 1 mM spermine, 1 mM EGTA; disruption of the MCU-MICU1 interaction; pH 7.4, 4 mM DDM. (In general: In western blotting, separated proteins are transferred to a membrane and probed.)

`NCCCNCCCCNCCCN` [spermine] registered a concentration giving a half-maximal response (EC50) in experiment [1] of 158 µM. Also, the “co-immunoprecipitation from HEK lysate, western blot” value in experiment [2] was “spermine fully breaks complex formation between MCU and the MICU1-1 dimer”.

(Values after article PMC10274775 (bioRxiv, 2023).)
